According to PMC10139140, “Synthesis of Novel 2-(Cyclopentylamino)thiazol-4(5H)-one Derivatives with Potential Anticancer, Antioxidant, and 11β-HSD Inhibitory Activities” (International Journal of Molecular Sciences, 2023):

Experiments:
11β-HSD1 = target: T1, 11β-HSD1 (Homo sapiens, UniProt P28845); assay: Inhibition of 11β-HSD1 (cortisone to cortisol, human liver microsomes, cortisol ELISA); assay type: biochemical
T1 construct: Human liver microsomes were used as a source of 11β-HSD1 enzyme; tissue XenoTech Lot No. 1410013; host or cells: pooled human liver microsomes, mixed gender
T1 sequence (P28845 whole entry): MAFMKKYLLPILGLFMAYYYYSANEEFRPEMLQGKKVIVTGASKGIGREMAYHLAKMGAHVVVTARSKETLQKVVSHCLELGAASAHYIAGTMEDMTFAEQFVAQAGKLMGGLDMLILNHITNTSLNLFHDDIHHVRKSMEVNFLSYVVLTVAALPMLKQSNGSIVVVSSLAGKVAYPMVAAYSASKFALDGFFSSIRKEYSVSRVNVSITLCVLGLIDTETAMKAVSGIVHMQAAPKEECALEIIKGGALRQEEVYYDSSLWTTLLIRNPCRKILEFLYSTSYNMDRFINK
Procedure, shortened: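 Human liver microsomal conversion of cortisone to cortisol, incubated 2.5 h at 37 °C and stopped with 18β-glycyrrhetinic acid. Cortisol was quantified by ELISA against inhibitor-free controls.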

11β-HSD2 = target: T2, 11β-HSD2 (Homo sapiens, UniProt P80365); assay: Inhibition of 11β-HSD2 (cortisol to cortisone, human microsomes, cortisol ELISA); assay type: biochemical; conditions: 2.5 h, 37 °C
T2 construct: Human liver microsomes were used as a source of 11β-HSD2 enzyme; tissue XenoTech Lot No. 1710160; host or cells: human kidney microsomes, mixed gender (method text says human liver microsomes)
T2 sequence (P80365 1-405): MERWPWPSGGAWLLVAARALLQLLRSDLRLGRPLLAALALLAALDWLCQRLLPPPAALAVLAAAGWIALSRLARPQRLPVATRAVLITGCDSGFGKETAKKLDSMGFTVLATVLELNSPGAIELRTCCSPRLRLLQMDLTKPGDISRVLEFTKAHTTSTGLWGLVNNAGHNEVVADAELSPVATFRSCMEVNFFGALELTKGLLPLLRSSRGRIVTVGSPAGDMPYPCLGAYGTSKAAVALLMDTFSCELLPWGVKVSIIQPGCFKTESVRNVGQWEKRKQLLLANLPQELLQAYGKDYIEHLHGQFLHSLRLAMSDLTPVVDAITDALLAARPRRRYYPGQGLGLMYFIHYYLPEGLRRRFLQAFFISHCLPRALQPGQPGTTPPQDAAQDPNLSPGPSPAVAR
Description: The resulting solution with a final volume of 100 µL was incubated for 2.5 h at 37 °C. […] The level of unreacted cortisol was measured by a commercially available ELISA kit.

BJ cells = assay: MTS metabolic activity assay, BJ cells; assay type: cell-based; conditions: Homo sapiens, 72 h, read-out: Cell metabolic activity (MTS), % of untreated control
Description: (§1) The BJ (CRL-2522), Caco-2 (HTB-37), PANC-1 (CRL-1469), U-118 MG (HTB-15), SK-MEL-30 (ACC 151), and MDA-MB-231 (HTB-26) cell lines were purchased from ATCC (Manassas, VA, USA) or DSMZ (Braunschweig, GERMANY). Cells were cultured in accordance with manufacturers' recommendations in a DMEM, MEM, or RPMI-1640 (Sigma, Saint Louis, MO, USA; Gibco, Waltham, MA, USA), supplemented with 10% FBS, except for Caco-2 (20%) (Thermo Fisher Scientific, Waltham, MA, USA) and 1% antibiotic mix solution (penicillin, streptomycin; Thermo Fisher Scientific, Waltham, MA, USA) in a humidified atmosphere with 5% CO2 at 37 °C. All cell lines were cultured in T75 cell culture flasks or cell culture dishes to reach 80–90% confluency and seeded at a standard density of 5 × 10^3 cells/0.32 cm^2, except for BJ cells at 2 × 10^3 cells/0.32 cm^2.
(§2) The MTS ((MTS: 3-(4,5-dimethylthiazol-2-yl)-5-(3-carboxymethoxyphenyl)-2-(4-sulfophenyl)-2H-tetrazolium)) assay was performed following previously reported method. Briefly, cells were seeded at a standard density into 96-well flat-bottom plates and incubated for 24 h, followed by the treatment. The various concentrations of compounds were prepared and treated for the next 72 h. MTS solution was added for 3h and incubated at standard conditions, protected from light. Finally, the absorbance was read at […] and 620 nm wavelengths using a Synergy H1 microplate reader (BioTek, Santa Clara, CA, USA). The results are presented as %, while untreated control cells were considered 100%.

[1] = system: human colon carcinoma (Caco-2); assay: MTS metabolic activity assay, Caco-2 cells; assay type: cell-based; conditions: Homo sapiens, 72 h, read-out: Cell metabolic activity (MTS), % of untreated control
Description: as §1, §2

[2] = system: human pancreatic carcinoma (PANC-1); assay: MTS metabolic activity assay, PANC-1 cells; assay type: cell-based; conditions: Homo sapiens, 72 h, read-out: Cell metabolic activity (MTS), % of untreated control
Description: as §1, §2

glioma (U-118 MG) = assay: MTS metabolic activity assay, U-118 MG cells; assay type: cell-based; conditions: Homo sapiens, U-118-MG, U118-MG, 72 h, read-out: Cell metabolic activity (MTS), % of untreated control
Description: as §1, §2

[3] = system: skin melanoma (SK-MEL-30); assay: MTS metabolic activity assay, SK-MEL-30 cells; assay type: cell-based; conditions: 72 h
Description: as §1, §2

[4] = system: human breast carcinoma (MDA-MB-231); assay: MTS metabolic activity assay, MDA-MB-231 cells; assay type: cell-based; conditions: 72 h
Description: as §1, §2

`CCCC1SC(NC2CCCC2)=NC1=O` (centres unmarked) [Compound 3c, 2-(cyclopentylamino)-5-propylthiazol-4(5H)-one] showed an IC50 (11β-HSD1) of 2750 ± 120 nM, an inhibition at 10 µM (11β-HSD1; 10 µM, 2.5 h, 37 °C) of 56.6 ± 6.11% and an inhibition at 10 µM (11β-HSD2) of 37.7 ± 6.07%. The viability at 10 µM (BJ cells; 10 µM) was 98.2%, the viability at 20 µM (BJ cells; 20 µM) was 99.7% and the viability at 50 µM (BJ cells; 50 µM) was 102%. For the same compound, the viability at 100 µM (BJ cells; 100 µM) was 108%, the viability at 200 µM (BJ cells; 200 µM) was 112% and the viability at 300 µM (BJ cells; 300 µM) was 111%. It also gave a viability at 500 µM (BJ cells; 500 µM) of 115%, a viability at 10 µM ([1]; Caco-2, 10 µM) of 88.1% and a viability at 20 µM ([1]; Caco-2, 20 µM) of 86.6%. For the same compound, the viability at 50 µM ([1]; Caco-2, 50 µM) was 87.6%, the viability at 100 µM ([1]; Caco-2, 100 µM) was 82% and the viability at 200 µM ([1]; Caco-2, 200 µM) was 86.1%. The viability at 300 µM ([1]; Caco-2, 300 µM) was 83.1%, the viability at 500 µM ([1]; Caco-2, 500 µM) was 68.5% and the viability at 10 µM ([2]; PANC-1, 10 µM) was 108%. The viability at 20 µM ([2]; PANC-1, 20 µM) was 106%, the viability at 50 µM ([2]; PANC-1, 50 µM) was 112% and the viability at 100 µM ([2]; PANC-1, 100 µM) was 114%. For the same compound, the viability at 200 µM ([2]; PANC-1, 200 µM) was 116%, the viability at 300 µM ([2]; PANC-1, 300 µM) was 115% and the viability at 500 µM ([2]; PANC-1, 500 µM) was 122%. It also gave a viability at 10 µM (glioma (U-118 MG); 10 µM) of 111%, a viability at 20 µM (glioma (U-118 MG); 20 µM) of 110% and a viability at 50 µM (glioma (U-118 MG); 50 µM) of 110%. The viability at 100 µM (glioma (U-118 MG); 100 µM) was 114%, the viability at 200 µM (glioma (U-118 MG); 200 µM) was 113% and the viability at 300 µM (glioma (U-118 MG); 300 µM) was 112%. The viability at 500 µM (glioma (U-118 MG); 500 µM) was 112%, the viability at 10 µM ([3]; Homo sapiens, SK-MEL-30, 10 µM, read-out: Cell metabolic activity (MTS), % of untreated control) was 101% and the viability at 20 µM ([3]; Homo sapiens, SK-MEL-30, 20 µM, read-out: Cell metabolic activity (MTS), % of untreated control) was 102%. It also gave a viability at 50 µM ([3]; Homo sapiens, SK-MEL-30, 50 µM, read-out: Cell metabolic activity (MTS), % of untreated control) of 101%, a viability at 100 µM ([3]; Homo sapiens, SK-MEL-30, 100 µM, read-out: Cell metabolic activity (MTS), % of untreated control) of 101% and a viability at 200 µM ([3]; Homo sapiens, SK-MEL-30, 200 µM, read-out: Cell metabolic activity (MTS), % of untreated control) of 95.9%. The viability at 300 µM ([3]; Homo sapiens, SK-MEL-30, 300 µM, read-out: Cell metabolic activity (MTS), % of untreated control) was 75%, the viability at 500 µM ([3]; Homo sapiens, SK-MEL-30, 500 µM, read-out: Cell metabolic activity (MTS), % of untreated control) was 45.5% and the “cell viability, decreases to” value ([3]; SK-MEL-30, higher concentrations, range given for the most effective substances together) was 20–65%. The viability at 10 µM ([4]; Homo sapiens, MDA-MB-231, 10 µM, read-out: Cell metabolic activity (MTS), % of untreated control) was 101%, the viability at 20 µM ([4]; Homo sapiens, MDA-MB-231, 20 µM, read-out: Cell metabolic activity (MTS), % of untreated control) was 102% and the viability at 50 µM ([4]; Homo sapiens, MDA-MB-231, 50 µM, read-out: Cell metabolic activity (MTS), % of untreated control) was 99.1%. For the same compound, the viability at 100 µM ([4]; Homo sapiens, MDA-MB-231, 100 µM, read-out: Cell metabolic activity (MTS), % of untreated control) was 97.4%, the viability at 200 µM ([4]; Homo sapiens, MDA-MB-231, 200 µM, read-out: Cell metabolic activity (MTS), % of untreated control) was 88.4% and the viability at 300 µM ([4]; Homo sapiens, MDA-MB-231, 300 µM, read-out: Cell metabolic activity (MTS), % of untreated control) was 75.9%. For the same compound, the viability at 500 µM ([4]; Homo sapiens, MDA-MB-231, 500 µM, read-out: Cell metabolic activity (MTS), % of untreated control) was 55% and the “cell viability, decreases to” value ([4]; MDA-MB-231, higher concentrations, range given for the most effective substances together) was 20–65%.
